Entries after “also recorded” stand apart in the source; their conditions may differ. Read-outs that look alike come from different tables or passages of the source.
Legend:
Format in all cases: cell-based
[1] = target: T1, human μ-opioid receptor, OPRM (Homo sapiens, UniProt P35372); assay: PathHunter β-arrestin 2 assay, OPRM cell line; settings: for OPRM β-ARR2 Emax (%): Example 3, Tables 5-7; for β-arrestin pathway activation / bARR2 recruitment, in words: OPRM
T1 construct: host or cells: HEK-293 overexpressing β-arrestin2 fused to a β-galactosidase fragment
Text: (§1) Human embryonic kidney 293 (HEK-293) cells which transfected overexpress (3-arrestin2 fused β-galactosidase fragment were purchased from DiscoverX. Human OPRM1 gene (NM 000914.3, encoding human μ-opioid receptor, OPRM) and Human OPRD1 gene (NM 000911.3, encoding human δ-opioid receptor, OPRD) were fused to a pCMV-ProLink plasmid which contains complementary β-galactosidase fragment purchased from DiscoverX. To generate human OPRM1 or OPRD1 expression cell lines, HEK-293 cells were transfected to prepared plasmid and grown in DMEM medium with 10% fetal bovine serum, 150 μg/mL Hygromycin B and 500 μg/mL G418.
(§2) The PathHunter enzyme assay was performed to measure the agonist's capability of β-arrestin 2 pathway activation. When agonists bind to G protein-coupled receptor (GPCR), the receptor pathway is sequentially activated from G protein to β-arrestin 2 recruitment.
(§3) Because […] β-arrestin 2 and C-terminal of GPCR have a fragment of β-galactosidase, recruitment of β-arrestin 2 to GPCR forms the whole β-galactosidase. The functionality of the whole β-galactosidase is detected by chemiluminescence (FlexStation3, Molecular Devices).
(§4) cAMP and β-arrestin assays described above were conducted to decide whether candidate compounds were μ- and/or δ-opioid receptor bias agonists for the G-protein pathway. All assays produced the concentration-response curve, and the curve data was validated by a quality control factor named Z′ factor. Because half-maximal effect concentration (EC50) depends on the population of receptors, the maximal asymptote of the concentration curve was used. Efficacy data of candidates was normalized by comparison to reference agonists DAMGO and SNC80 for OPRM and OPRD.

[2] = target: T2, human δ-opioid receptor, OPRD (Homo sapiens, UniProt P41143); assay: PathHunter β-arrestin 2 assay, OPRD cell line; settings: for β-arrestin pathway activation / bARR2 recruitment, in words: OPRD
T2 construct: host or cells: HEK-293 overexpressing β-arrestin2 fused to a β-galactosidase fragment
Text: as §1, §2, §3, §4

[3] = target: T1, human μ-opioid receptor, OPRM; assay: Dominant assay: cAMP assay with/without irreversible antagonist β-FNA, OPRM cell line; settings: for maximal response on decreasing receptor population (dominant tendency), in words: OPRM cell lines, β-FNA
Text: (§5) To confirm the agonist's efficacy in a nature-like system, we need inactivation of target receptors on the cell membrane. Most cell lines have an abundant target receptor population (also known as spare receptors). Therefore, agonists have more opportunity to constitute agonist-receptor conformation. In this environment, not only full agonists but also partial agonists can reach maximal response.
(§6) If the partial agonist is selected as a full agonist, translational in vivo research will likely fail.
(§7) Non-competitive, irreversible antagonists can be applicable to judge the pharmacological character of agonists because they permanently decrease the receptor population in the cell line system. β-FNA or β-CNA is used as a non-competitive and irreversible antagonist for OPRM, OPRD. Before cAMP assay, cells were incubated with β-FNA or β-CNA for 40 minutes. Afterwards, the procedure is the same.
(§8) If a partial agonist compound acts as a full agonist due to receptor population (pseudo full agonist), it cannot sustain maximal response with reduced receptor population. However, a full agonist compound maintains their maximal response even though increased EC50.

[4] = target: T2, human δ-opioid receptor, OPRD; assay: Dominant assay: cAMP assay with/without irreversible antagonist β-CNA, OPRD cell line; settings: for maximal response on decreasing receptor population (dominant tendency), in words: OPRD cell lines, β-CNA
Text: as §5, §6, §7, §8

[5] = addition of β-FNA, Example 3, Tables 5-7, read-out: OPRM Gi β-FNA (+) EC50
[6] = addition of β-FNA, Example 3, Tables 5-7, read-out: OPRM Gi β-FNA (+) Emax (%)
[7] = addition of β-FNA, repeated dominant assay, Example 4, Tables 8-10
[8] = addition of β-FNA, repeated dominant assay, Example 4, Tables 8-10, read-out: OPRM Gi β-FNA (+) EC50
[9] = no addition of β-FNA, Example 3, Tables 5-7, read-out: OPRM Gi β-FNA (−) EC50
[10] = no addition of β-FNA, Example 3, Tables 5-7, read-out: OPRM Gi β-FNA (−) Emax (%)
[11] = no addition of β-FNA, repeated dominant assay, Example 4, Tables 8-10, read-out: OPRM Gi β-FNA (−) EC50
[12] = no addition of β-FNA, repeated dominant assay, Example 4, Tables 8-10, read-out: OPRM Gi β-FNA (−) Emax (%)
[13] = addition of β-CNA, Example 3, Tables 5-7
[14] = addition of β-CNA, repeated dominant assay, Example 4, Tables 8-10
[15] = addition of β-CNA, repeated dominant assay, Example 4, Tables 8-10, read-out: OPRD Gi β-CNA (+) EC50
[16] = no addition of β-CNA, Example 3, Tables 5-7
[17] = no addition of β-CNA, repeated dominant assay, Example 4, Tables 8-10, read-out: OPRD Gi β-CNA (−) EC50
[18] = no addition of β-CNA, repeated dominant assay, Example 4, Tables 8-10, read-out: OPRD Gi β-CNA (−) Emax (%)
[19] = addition of β-FNA, Example 3, Tables 5-7
[20] = no addition of β-FNA, Example 3, Tables 5-7
[21] = no addition of β-FNA, repeated dominant assay, Example 4, Tables 8-10
[22] = addition of β-CNA, Example 3, Tables 5-7, read-out: OPRD Gi β-CNA (+) EC50
[23] = no addition of β-CNA, Example 3, Tables 5-7, read-out: OPRD Gi β-CNA (−) EC50
[24] = no addition of β-CNA, repeated dominant assay, Example 4, Tables 8-10

T1 sequence (P35372 whole entry, the tested form may be a part): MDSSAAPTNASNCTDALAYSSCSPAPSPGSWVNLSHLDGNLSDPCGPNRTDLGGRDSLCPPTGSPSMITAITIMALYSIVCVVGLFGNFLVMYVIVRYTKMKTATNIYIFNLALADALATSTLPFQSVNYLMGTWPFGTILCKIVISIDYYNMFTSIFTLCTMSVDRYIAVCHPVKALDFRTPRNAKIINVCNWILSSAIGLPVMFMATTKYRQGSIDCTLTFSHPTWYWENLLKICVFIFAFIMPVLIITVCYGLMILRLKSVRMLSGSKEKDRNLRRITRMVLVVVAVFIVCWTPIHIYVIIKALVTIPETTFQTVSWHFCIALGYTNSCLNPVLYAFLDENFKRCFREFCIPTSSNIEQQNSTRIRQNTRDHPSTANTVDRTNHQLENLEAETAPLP
T2 sequence (P41143 whole entry, the tested form may be a part): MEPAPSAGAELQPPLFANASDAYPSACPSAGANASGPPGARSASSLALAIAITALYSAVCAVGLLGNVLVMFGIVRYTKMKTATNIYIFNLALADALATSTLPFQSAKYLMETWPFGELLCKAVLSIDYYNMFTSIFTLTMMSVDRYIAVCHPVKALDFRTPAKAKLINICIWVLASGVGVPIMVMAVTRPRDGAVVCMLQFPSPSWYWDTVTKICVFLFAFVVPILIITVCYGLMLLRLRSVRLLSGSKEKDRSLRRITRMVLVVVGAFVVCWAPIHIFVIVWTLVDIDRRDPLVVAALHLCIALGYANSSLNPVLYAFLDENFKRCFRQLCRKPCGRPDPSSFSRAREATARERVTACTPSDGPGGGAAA

CN(C)C(CNC(=O)Cc1ccc2c(c1)OCCO2)c1ccccc1 (single isomer, unassigned) [Compound 4]
OPRM β-ARR2 Emax (%) [1]: 4.8% | β-arrestin pathway activation / bARR2 recruitment, in words [1]: lower bARR2 recruitment as compared to morphine | OPRD β-ARR2 Emax (%) ([2]; Example 3, Tables 5-7): 2.8% | β-arrestin pathway activation / bARR2 recruitment, in words [2]: lower bARR2 recruitment as compared to morphine | maximal response on decreasing receptor population (dominant tendency), in words [3]: better efficacy than racemic compound 1 | EC50 [3, 5]: 10.9 µM | Emax [3, 6]: 24.6% | OPRM Gi β-FNA (+) Emax (%) [3, 7]: 45.02% | EC50 [3, 8]: 12 µM | EC50 [3, 9]: 20 µM | Emax [3, 10]: 82.8% | EC50 [3, 11]: 9.4 µM | Emax [3, 12]: 100% | OPRD Gi β-CNA (+) Emax (%) [4, 13]: 17.23% | OPRD Gi β-CNA (+) Emax (%) [4, 14]: 108.1% | EC50 [4, 15]: 10 µM | OPRD Gi β-CNA (−) Emax (%) [4, 16]: 20.59% | EC50 [4, 17]: 8.65 µM | Emax [4, 18]: 100%

CN(C)C(CNC(=O)Cc1ccc2c(c1)OCCO2)c1ccccc1 (single isomer, unassigned) [Compound 5]
OPRM β-ARR2 Emax (%) [1]: 23.1% | OPRD β-ARR2 Emax (%) ([2]; Example 3, Tables 5-7): 5.7% | maximal response on decreasing receptor population (dominant tendency), in words [3]: superior efficacy-dominant properties | OPRM Gi β-FNA (+) Emax (%) [3, 19]: 21.91% | EC50 [3, 5]: 2.45 µM | OPRM Gi β-FNA (+) Emax (%) [3, 7]: 77.98% | EC50 [3, 8]: 4.07 µM | OPRM Gi β-FNA (−) Emax (%) [3, 20]: 102% | EC50 [3, 9]: 0.292 µM | OPRM Gi β-FNA (−) Emax (%) [3, 21]: 101.9% | EC50 [3, 11]: 1.65 µM | maximal response on decreasing receptor population (dominant tendency), in words [4]: superior efficacy-dominant properties | OPRD Gi β-CNA (+) Emax (%) [4, 13]: 79.38% | EC50 [4, 22]: 6.1 µM | OPRD Gi β-CNA (+) Emax (%) [4, 14]: 65.27% | EC50 [4, 15]: 8.79 µM | OPRD Gi β-CNA (−) Emax (%) [4, 16]: 111% | EC50 [4, 23]: 6.67 µM | OPRD Gi β-CNA (−) Emax (%) [4, 24]: 100% | EC50 [4, 17]: 7.33 µM

CN1CCc2cc(C(CNC(=O)Nc3ccc(F)cc3)N(C)C)ccc21 (single isomer, unassigned) [Compound 6]
OPRM β-ARR2 Emax (%) [1]: 8.5% | β-arrestin pathway activation / bARR2 recruitment, in words [1]: lower bARR2 recruitment as compared to morphine | Emax ([2]; Example 3, Tables 5-7, read-out: OPRD β-ARR2 Emax (%)): 10.5% | β-arrestin pathway activation / bARR2 recruitment, in words [2]: lower bARR2 recruitment as compared to morphine | maximal response on decreasing receptor population (dominant tendency), in words [3]: resistant to decreasing spare receptors; also recorded: showed efficacy dominance on both types of opioid receptors; also recorded: resistant to decreasing spare receptor-induced tendency; also recorded: maintained a higher maximal response as compared to compound 2 | EC50 [3, 5]: 2.48 µM | Emax [3, 6]: 77% | EC50 [3, 8]: 8.49 µM | Emax ([3]; addition of β-FNA, repeated dominant assay, Example 4, Tables 8-10, read-out: OPRM Gi β-FNA (+) Emax (%)): 90.1% | EC50 [3, 9]: 0.519 µM | Emax [3, 10]: 106% | EC50 [3, 11]: 1.86 µM | Emax [3, 12]: 100% | maximal response on decreasing receptor population (dominant tendency), in words [4]: resistant to decreasing spare receptors; also recorded: showed efficacy dominance on both types of opioid receptors; also recorded: resistant to decreasing spare receptor-induced tendency; also recorded: maintained a higher maximal response as compared to compound 2 | EC50 [4, 22]: 48.3 µM | Emax ([4]; addition of β-CNA, Example 3, Tables 5-7, read-out: OPRD Gi β-CNA (+) Emax (%)): 119% | EC50 [4, 15]: 13.5 µM | Emax ([4]; addition of β-CNA, repeated dominant assay, Example 4, Tables 8-10, read-out: OPRD Gi β-CNA (+) Emax (%)): 81.4% | OPRD Gi β-CNA (−) Emax (%) [4, 16]: 128.1% | EC50 [4, 23]: 8.91 µM | EC50 [4, 17]: 4.32 µM | Emax [4, 18]: 102%

CN1CCc2cc(C(CNC(=O)Nc3ccc(F)cc3)N(C)C)ccc21 (single isomer, unassigned) [Compound 7]
OPRM β-ARR2 Emax (%) [1]: 22.0% | OPRD β-ARR2 Emax (%) ([2]; Example 3, Tables 5-7): 6.4% | maximal response on decreasing receptor population (dominant tendency), in words [3]: resistant to decreasing spare receptors; also recorded: showed efficacy dominance on both types of opioid receptors; also recorded: resistant to decreasing spare receptor-induced tendency; also recorded: maintained a higher maximal response as compared to compound 2 | OPRM Gi β-FNA (+) Emax (%) [3, 19]: 85.93% | EC50 [3, 5]: 0.728 µM | OPRM Gi β-FNA (+) Emax (%) [3, 7]: 90.07% | EC50 [3, 8]: 6.95 µM | OPRM Gi β-FNA (−) Emax (%) [3, 20]: 95.81% | EC50 [3, 9]: 0.0416 µM | OPRM Gi β-FNA (−) Emax (%) [3, 21]: 100.9% | EC50 [3, 11]: 2.31 µM | maximal response on decreasing receptor population (dominant tendency), in words [4]: resistant to decreasing spare receptors; also recorded: showed efficacy dominance on both types of opioid receptors; also recorded: resistant to decreasing spare receptor-induced tendency; also recorded: maintained a higher maximal response as compared to compound 2 | OPRD Gi β-CNA (+) Emax (%) [4, 13]: 100.2% | EC50 [4, 22]: 4.9 µM | OPRD Gi β-CNA (+) Emax (%) [4, 14]: 81.99% | EC50 [4, 15]: 3.44 µM | OPRD Gi β-CNA (−) Emax (%) [4, 16]: 98.3% | EC50 [4, 23]: 0.517 µM | OPRD Gi β-CNA (−) Emax (%) [4, 24]: 100.2% | EC50 [4, 17]: 1.05 µM

C[C@@H](NC(=O)[C@@H](N)Cc1ccc(O)cc1)C(=O)NCC(=O)N(C)[C@@H](Cc1ccccc1)C(=O)NCCO [DAMGO, [D-Ala^2, NMe-Phe^4, Gly-ol^5]-enkephalin, reference compound]
maximal response on decreasing receptor population (dominant tendency), in words [3]: full agonist

C=CCN1C[C@H](C)N([C@H](c2ccc(C(=O)N(CC)CC)cc2)c2cccc(OC)c2)C[C@H]1C [SNC80, reference compound]
maximal response on decreasing receptor population (dominant tendency), in words [4]: full agonist | completeness of concentration-response curve, in words ([4]; OPRD system): produced a full concentration-response curve
